For orientation: Ki means a measure of affinity in units of concentration, obtained from inhibition or displacement. High values mean a looser hold on the target, low ones a stronger hold on the target.

In one experiment the test system is Plasma. Description: Anticoagulant activity in human plasma assessed as concentration required to produce 50% increase in activated partial thromboplastin time relative to baseline control. Format: functional.
A further experiment has as its target Coagulation factor XI (Homo sapiens, UniProt P03951). Description: Inhibition of human F11a using peptide substrate by spectrophotometry.
Another experiment addresses T1, Coagulation factor VII (Homo sapiens, UniProt P08709).
T1 sequence (P08709 whole entry): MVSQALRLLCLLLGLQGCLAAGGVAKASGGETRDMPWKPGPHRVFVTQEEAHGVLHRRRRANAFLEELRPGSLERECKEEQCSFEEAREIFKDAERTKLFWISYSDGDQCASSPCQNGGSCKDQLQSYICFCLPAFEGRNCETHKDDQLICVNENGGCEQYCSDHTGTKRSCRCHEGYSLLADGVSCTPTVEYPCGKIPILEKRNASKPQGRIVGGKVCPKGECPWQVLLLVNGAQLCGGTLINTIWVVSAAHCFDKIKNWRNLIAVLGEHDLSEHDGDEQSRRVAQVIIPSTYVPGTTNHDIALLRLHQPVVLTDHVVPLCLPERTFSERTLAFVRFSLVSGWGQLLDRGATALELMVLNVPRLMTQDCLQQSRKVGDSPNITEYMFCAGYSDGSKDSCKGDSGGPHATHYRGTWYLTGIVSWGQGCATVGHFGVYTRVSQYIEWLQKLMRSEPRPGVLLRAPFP
Description: Binding affinity to F7a (unknown origin).

A further experiment concerns the target Prothrombin (Homo sapiens, UniProt P00734). Description: Binding affinity to F2a (unknown origin).
In another experiment the target is Coagulation factor X (Homo sapiens, UniProt P00742). Description: Binding affinity to F10a (unknown origin).
Experiment [1] in a line: Binding affinity to trypsin (unknown origin). Also on record: species or system Homo sapiens.

Bounds are passed on as bounds.

Sequence of Coagulation factor XI (P03951 19-387 limits assumed): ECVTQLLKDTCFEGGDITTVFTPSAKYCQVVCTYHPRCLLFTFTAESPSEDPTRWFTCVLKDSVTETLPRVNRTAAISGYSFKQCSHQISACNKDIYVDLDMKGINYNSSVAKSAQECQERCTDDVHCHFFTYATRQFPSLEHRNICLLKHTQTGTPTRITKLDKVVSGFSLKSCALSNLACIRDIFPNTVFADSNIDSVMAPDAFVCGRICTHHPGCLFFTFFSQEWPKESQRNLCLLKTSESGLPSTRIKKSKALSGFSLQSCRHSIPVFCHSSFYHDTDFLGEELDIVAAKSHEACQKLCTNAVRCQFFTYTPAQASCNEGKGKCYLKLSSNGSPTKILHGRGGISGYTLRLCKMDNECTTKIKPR
Sequence of Coagulation factor XI (P03951 388-625 limits assumed): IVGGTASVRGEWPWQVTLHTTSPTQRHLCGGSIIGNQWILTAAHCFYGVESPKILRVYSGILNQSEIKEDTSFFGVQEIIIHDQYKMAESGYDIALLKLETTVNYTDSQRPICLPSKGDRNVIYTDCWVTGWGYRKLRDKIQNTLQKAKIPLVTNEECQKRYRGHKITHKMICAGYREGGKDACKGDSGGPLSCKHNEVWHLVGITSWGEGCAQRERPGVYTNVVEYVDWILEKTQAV
Sequence of Coagulation factor X (P00742 41-179 limits assumed): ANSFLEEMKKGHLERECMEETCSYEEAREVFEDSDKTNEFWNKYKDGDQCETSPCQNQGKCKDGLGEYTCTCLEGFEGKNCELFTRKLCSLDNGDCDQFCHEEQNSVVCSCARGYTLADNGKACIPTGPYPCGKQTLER
Sequence of Coagulation factor X (P00742 235-488 limits assumed): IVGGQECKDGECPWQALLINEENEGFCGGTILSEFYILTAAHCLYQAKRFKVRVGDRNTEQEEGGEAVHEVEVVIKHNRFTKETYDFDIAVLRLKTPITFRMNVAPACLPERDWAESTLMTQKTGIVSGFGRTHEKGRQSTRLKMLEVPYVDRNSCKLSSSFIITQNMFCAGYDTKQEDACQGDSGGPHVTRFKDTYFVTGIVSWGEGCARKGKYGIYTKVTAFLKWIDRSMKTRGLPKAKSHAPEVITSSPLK

Take `COC(=O)Nc1ccc2c(c1)CCCCc1cccc(c1)C[C@H](NC(=O)/C=C/c1cc(Cl)ccc1-n1cnnn1)c1nc-2c(Cl)[nH]1`: the Activity in the experiment with Plasma came to 34 µM.
Take `COC(=O)Nc1ccc2c(c1)NC(=O)CCc1cccc(n1)C[C@H](NC(=O)/C=C/c1cc(Cl)ccc1-n1cnnn1)c1nc-2c[nH]1`: the Activity with Plasma lay within 0.27 to 0.4 µM. The same molecule had a Ki at Coagulation factor XI of 0.32 nM.
Consider `COC(=O)Nc1ccc2c(c1)CNC(=O)c1cccc(c1)C[C@H](NC(=O)/C=C/c1cc(Cl)ccc1-n1cnnn1)c1nc-2c[nH]1`, for which the Ki at Coagulation factor XI is 500 nM.
Turning to `COC(=O)Nc1ccc2c(c1)NC(=O)CCc1cc(ccc1F)C[C@H](NC(=O)/C=C/c1cc(Cl)ccc1-n1cnnn1)c1nc-2c[nH]1`, the Activity with Plasma worked out at 1.4 µM. Moreover, the Ki on Coagulation factor XI came to 0.53 nM.
Take `COC(=O)Nc1ccc2c(c1)CNC(=O)c1ccc(cc1)C[C@H](NC(=O)/C=C/c1cc(Cl)ccc1-n1cnnn1)c1nc-2c[nH]1`: the Ki at Coagulation factor XI turned out to be 6400 nM.
Turning to `COC(=O)Nc1ccc2c(c1)NC(=O)CCc1cccc(c1)C[C@H](NC(=O)/C=C/c1cc(Cl)ccc1-n1cnnn1)c1nc-2c[nH]1`, the Activity in the experiment with Plasma was 2.1 µM. The same molecule displayed a Ki at Coagulation factor XI of 1.5 nM.
Turning to `COC(=O)Nc1ccc2c(c1)NC(=O)CCc1nc(ccc1F)C[C@H](NC(=O)/C=C/c1cc(Cl)ccc1-n1cnnn1)c1nc-2c[nH]1`, the Ki at Coagulation factor VII is 1100 nM; at Prothrombin it was greater than 13000 nM; at Coagulation factor X it was 1400 nM; at Coagulation factor XI, 0.02 nM; in experiment [1] it was 670 nM. Besides, the Activity in the experiment on Plasma stood at 0.27 µM.
As to `COC(=O)Nc1ccc2c(c1)CNC(=O)c1cccc(c1)C[C@H](NC(=O)/C=C/c1cc(Cl)ccc1-n1cnnn1)c1nc-2c(Cl)[nH]1`, the Ki on Coagulation factor XI amounted to 92 nM.
In the case of `COC(=O)Nc1ccc2c(c1)CCCCc1cccc(c1)C[C@H](NC(=O)/C=C/c1cc(Cl)ccc1-n1cnnn1)c1nc-2c[nH]1`, the Activity in the experiment with Plasma was found to be 23 µM. The Ki at Coagulation factor XI was 17 nM.

Values taken from ChEMBL document CHEMBL4043146, “Macrocyclic factor XIa inhibitors” (Bioorg Med Chem Lett, 2017).
